Experiment [1] has as its system BDF1 mice, P388 leukemia ip. The experiment in a line: NCI In Vivo Anticancer Drug Screen. Data for tumor model P388 Leukemia (intraperitoneal) in B6D2F1 (BDF1) mice. To be noted: endpoint: mean survival time, higher = longer survival. The essentials: (§1)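 Reported as T/C, where T is the survival measurement in dosed animals and C the same measurement in vehicle controls.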

The subject of experiment [2] is BDF1 mice, P388 leukemia ip, median survival T/C. The description is as above. To be noted: endpoint: median survival time, higher = longer survival. In a few lines: as §1

Inconclusive results and toxic doses are left out.

Turning to `CCOC(CN(Cc1ccc(OCc2ccccc2)c(OC)c1)S(=O)(=O)c1ccc(C)cc1)OCC`, the T/C was 93 % of control in experiment [1] (dose: 25.0 mg/kg/injection, schedule: Q01DX009 (ip), vehicle: water); 97 % of control in experiment [1] (dose: 50.0 mg/kg/injection, schedule: Q01DX009 (ip), vehicle: water); 93 % of control in experiment [1] (dose: 100.0 mg/kg/injection, schedule: Q01DX009 (ip), vehicle: water); 90 % of control in experiment [1] (dose: 200.0 mg/kg/injection, schedule: Q01DX009 (ip), vehicle: water).

As for `C/C=C/c1cc2c(c(=O)o1)C(=O)[C@@H](O)[C@H](C)O2`, the T/C in experiment [2] (dose: 11.0 mg/kg/injection, schedule: Q01DX010 (ip), vehicle: other) is 120 % of control; in experiment [2] (dose: 25.0 mg/kg/injection, schedule: Q01DX010 (ip), vehicle: other) it was 154 % of control; in experiment [2] (dose: 50.0 mg/kg/injection, schedule: Q01DX010 (ip), vehicle: other) it was 150 % of control; in experiment [2] (dose: 100.0 mg/kg/injection, schedule: Q01DX010 (ip), vehicle: other), 150 % of control; in experiment [1] (dose: 25.0 mg/kg/injection, schedule: Q01DX010 (ip), vehicle: carboxymethylcellulose (CMC)), 119 % of control.

For the compound `CC1(C)C(=O)C(O)=C[C@H]2C1=CC[C@@H]1[C@]2(C)C(=O)C[C@]2(C)[C@@H]([C@@](C)(O)C(=O)CC(O)C(C)(C)O)C(O)C[C@@]12C` (some centres undefined), in experiment [1] (dose: 18.0 mg/kg/injection, schedule: Q01DX010 (ip), vehicle: carboxymethylcellulose (CMC)), the T/C was 99 % of control.

For the compound `COc1cccc(/C=N/NC(=O)C[n+]2ccccc2)c1OC`, the T/C is 104 % of control in experiment [2] (dose: 12.5 mg/kg/injection, schedule: Q01DX009 (ip), vehicle: saline with Tween-80); 100 % of control in experiment [2] (dose: 25.0 mg/kg/injection, schedule: Q01DX009 (ip), vehicle: saline with Tween-80); 104 % of control in experiment [2] (dose: 50.0 mg/kg/injection, schedule: Q01DX009 (ip), vehicle: saline with Tween-80); 100 % of control in experiment [2] (dose: 50.0 mg/kg/injection, schedule: Q04DX003 (ip), vehicle: saline with Tween-80).

The record behind these values is PubChem BioAssay AID328 (DTP/NCI, 2004).
